# According to patent US11180744B2, “Acinetobacter lysins” (priority 2014, dated 2021):
# Where “and” joins values, the source holds several entries; their conditions need not be identical. Equal entries are not always repeated. Where two headings read alike, the source gives them in different places. Where no end group is shown, it is not given here.
# Tests used:
# [1] = in vitro; assay type: cell-based; conditions: B cell line
# [2] = tested on: B cell line; assay: in vitro; assay type: cell-based
# [3] = tested on: A. baumannii strains #1791, S5 and ATCC17978; assay: In vitro bactericidal activities of peptides (Example 10); assay type: cell-based
# [4] = tested on: A. baumannii strains #1791 and ATCC17978; assay: microbe, parasite or virus in culture; conditions: Acinetobacter baumannii, ATCC17978, 24 h, 37° C.
# [5] = tested on: red blood cells (RBC); assay: Hemolysis, release of hemoglobin (OD405); conditions: 80-0.3125 μM; 1 hour at 37° C.; Triton X-100 positive control
# [6] = tested on: Human B-cells; assay: B cell survival, CellTiter 96 Non-Radioactive Cell Proliferation Assay; conditions: highest concentration tested (80 μM); 1 hr at 37° C.
# [7] = tested on: A. baumannii strains #1791 and ATCC17978; conditions: Mueller-Hinton broth (pH 7.9), 37° C., 24 hour
# [8] = tested on: A. baumannii strain 1791 biofilm; assay: Mouse catheter model; assay type: in vivo, BALB/C mice; conditions: 250 μl of F307 (1 mg) injected into catheter under the dermis, repeated after 4 hours
# Experimental: Mouse Catheter Model: Several 3 inch section of catheter tubing were seeded (1:1000) with A. baumannii strain 1791. A. baumannii biofilms were formed as described above. The back of twenty BALB/C mice were shaved, their backs were sterilized, and then an incision was made to place a 1 inch section of the catheter with a biofilm already formed under the dermis of the back. The incisions were then stapled shut. After 24 hours, 250 μl of F307 (1 mg) (n=10) or 250 μl control vehicle (n=10) was injected directly into the catheter that was under the dermis of the mouse. The treatment was repeated after 4 hours. After 3 hours the catheters were removed from the mice, and assayed as described in Experiment 4.
# [9] = tested on: A. baumannii; assay: Survival of mice after lethal injection of A. baumannii; assay type: in vivo, C57BL/6 mice; conditions: 1 mg of F307 IP two hours after 10^8 CFU IP; 14 days after infection
# Experimental: Twenty-two C57BL/6 mice were given 10^8 CFU of A. baumannii strain intraperitoneally (IP). Two hours later, two mice were euthanized and organs examine as described below, ten mice injected IP with 1 mg of F307 and ten mice were injected IP with control vehicle.
# [10] = tested on: A. baumannii clinical isolates; assay: Crude lysate clearing zones on A. baumannii soft agar plates; conditions: thirteen A. baumannii clinical isolates
# [11] = tested on: A. baumannii 1791 biofilm; assay: In vitro treatment of catheter adherent A. baumannii 1791 biofilm with F307
# [12] = pH 7.9, strain #1791, Mueller-Hinton broth (pH 7.9)
# [13] = pH 7.9, strain ATCC17978, Mueller-Hinton broth (pH 7.9)
molecule,measurement,setting,value
NAKDYKGAAAEFPKWNKAGGRVLAGLVKRRK [P307],"viability at 5 min, 2 μg",[1],95.2%
same,"viability at 5 min, 20 μg",[1],97.2%
same,"viability at 5 min, 200 μg",[1],94.6%
same,"viability at 0.5 h, 2 μg",[1],76.9%
same,"viability at 0.5 h, 20 μg",[1],88.6%
same,"viability at 1 h, 2 μg",[1],89.3%
same,"viability at 1 h, 20 μg",[1],89.7%
same,"viability at 1 h, 200 μg",[1],71.4%
same,"viability at 2 h, 2 μg",[1],92.5%
same,"viability at 2 h, 20 μg",[1],90.3%
same,"viability at 2 h, 200 μg",[1],71.9%
same,"viability at 3 h, 2 μg",[1],93.8%
same,"viability at 3 h, 20 μg",[1],91%
same,"viability at 3 h, 200 μg",[1],58.6%
same,"viability at 24 h, 2 μg",[1],96.3%
same,"viability at 24 h, 20 μg",[1],94.2%
same,"viability at 24 h, 200 μg",[1],76.3%
same,effect on cell number of a B cell line,[2],only a slight effect on cell number
P307AE-8: SEQ ID NO: 49: NAKDYKGAAAEFPKWNKAGGRVLAGLVKRRKAEMELFLK (P307AE-8),decrease in viable bacteria,"[3]; 50 μg/mL, 2 hours, room temperature",~3.8 log-unit
CC(C)(O/N=C(\C(=O)N[C@@H]1C(=O)N2C(C(=O)[O-])=C(C[n+]3ccccc3)CS[C@H]12)c1csc(N)n1)C(=O)O [Ceftazidime],MIC,[4]; [12],250 µg/mL and 457 µM
same,MIC,[4]; [13],12 µg/mL and 21.9 µM
NAKDYKGAAAEFPKWNKAGGRVLAGLVKRRKSQSRESQC [P307SQ-8C],integrity of RBCs (hemolysis),[5],not affected
same,viability of B cells,[6],remains the same as the buffer control
P307CS-8: SEQ ID NO: 51: NAKDYKGAAAEFPKWNKAGGRVLAGLVKRRKCSQRQSES (P307CS-8),activity of P307CS-8 compared with P307SQ-8C,[3]; scrambled last eight amino acids,comparable
Polymyxin B [reference compound],MIC,[7]; strain #1791,0.25 μg/mL and 0.19 μM
same,MIC,[7]; strain ATCC17978,0.25 μg/mL and 0.19 μM
C[C@H]1COc2c(N3CCN(C)CC3)c(F)cc3c(=O)c(C(=O)O)cn1c23 [Levofloxacin],MIC,[4]; [12],6 µg/mL and 16.6 µM
same,MIC,[4]; [13],≤ 0.1 µg/mL and 0.3 µM
SQSRESQC (Ex) [reference compound],bactericidal activity of SQSRESQC alone or combined with P307,"[3]; strains #1791 and S5, same molar concentration as 50 μg/mL P307",no activity
"F307: phage lysin polypeptide, SEQ ID NO: 1, 16 kDa (protein, listed as Acinetobacter baumannii) VKTSNPGVDLIKGFEGLRLKAYDDGVGVWTIGFGTIKYPNGVRVKKGDTCTESQAEEYLRNDLVVFESAINRLVKVPLNQNQFDALASFTYNLGEGNLSISTLLKKLNAKDYKGAAAEFPKWNKAGGRVLAGLVKRRKAEMELFLK",reduction of bacterial counts compared with control,[8],approximately 2 logs
same,survival,[9],50%
same,percent of Acinetobacter strains lysed,[10],about 90%
same,drop in the number of colony forming units,"[11]; 3-day biofilm on catheter, after 30 minutes of treatment",~4 log
same,CFU,[11]; 15 minutes F307 treatment,9.0 × 10^4 CFU
same,CFU,[11]; 30 minutes F307 treatment,6.0 × 10^3 CFU
